Measured values as given in patent US20070293518A1, “PROLONGED IMPROVEMENT OF RENAL FUNCTION COMPRISING INFREQUENT ADMINISTRATION OF AN AA1RA” (priority 2006, published 2007).
Values joined by “and” are separate entries in the source; they are usually repeats but may differ in a detail not shown here. Equal entries are not always repeated. Where two headings read alike, the source gives them in different places. Marks after values point to notes of the source that are not given here.

Columns and labels:
[1] = test system: subjects with congestive heart failure refractory to standard diuretic therapy; test: Double-blind placebo-controlled study in CHF patients refractory to standard diuretic therapy: creatinine clearance; assay type: in vivo, human; conditions: 30 mg intravenous infusion with current diuretic therapy; 0-24 hours; FIG. 4
Procedure: A double-blind placebo-controlled study was conducted as follows: 35 subjects with congestive heart failure that were refractory to standard diuretic therapy were identified. […] The patients' diuretic therapy was stopped at least 5 hours before prior to the treatment. Staring at −3 hours, urine was collected for volume and creatinine clearance measurements. […] Blood and urine samples were colleted at 0, 3, 6, 9, 12 and 24 hours following study drug administration.

[2] = test system: patients with CHF and renal impairment; test: Double-blind placebo-controlled study in CHF patients with acute fluid overload and renal impairment: sustained worsening renal function; assay type: in vivo, human; conditions: 2.5, 15, 30 or 60 mg IV days 1 through 3; FIG. 6
Procedure: Worsening renal function was defined as a ≧0.3 mg/dL increase in serum creatinine.

[3] = test system: heart failure patients with renal impairment who are treated with diuretics; test: Double-blind cross-over study in stable CHF: GFR, RPF, urine volume; assay type: in vivo, human; conditions: for GFR % Difference Between KW-3902 and Placebo / GFR Percent Change from Baseline / RPF % Difference Between KW-3902 and Placebo / RPF Percent Change from Baseline: 30 mg KW-3902 IV plus 80 mg IV furosemide
Procedure: A double-blind, multi-center, cross-over designed, controlled study was conducted as follows: Approximately 23 outpatient subjects were randomized. […] Subjects received at least two treatments that were at least three days apart, with a median interval between treatments of 6 days. […] Patients that received KW-3902 on the first visit received placebo on the second visit, and vice versa. Infusions of lothalamate ([…]) and para-aminohippurate were administered according to standard protocols to assess glomerular filtration rate (GFR) and renal plasma flow (RPF), respectively. Iothalamate and para-aminohippurate were administered over 180 minutes before treatment with KW-3902/placebo and 8 hours after treatment with KW-3902/placebo. Urine and plasma were collected for GFR and RPF at baseline and 2, 4, and 8 hours. The mean GFR at baseline was 61 mL/min.

[4] = Pharmacokinetic study of KW-3902, single intravenous dose, serum concentrations; assay type: in vivo; conditions: human; for clearance: read-out: CL∞ Mean (converted); for half-life: read-out: T1/2 Mean (converted); for Tmax: read-out: Tmax Median; for Vd: read-out: Vss∞ Mean
Procedure: Individuals received a single intravenous dose of 1 mg, 2.5 mg. 5 mg, 10 mg, 20 mg, 30 mg 40 mg, 50 mg or 60 mg KW-3902 as indicated. The serum concentrations of KW-3902 and its M1-trans metabolite were measured using routine analytical methods. Routine mathematical formulae were used to determine pharmacokinetic values.

[5] = test system: subjects hospitalized due to acute CHF requiring intravenous diuretic therapy; test: Study in subjects hospitalized due to acute CHF requiring intravenous diuretic therapy: serum creatinine, worsening renal function; assay type: in vivo, human
Procedure: More than 300 subjects hospitalized due to acute CHF requiring intravenous diuretic therapy to treat fluid overload, and presenting with creatinine clearance values between 20 to 80 mL/min were identified. The subjects were randomized to receive either placebo, or 10 mg, 20 mg or 30 mg intravenous KW-3902 per day. The subjects' BNP levels, NT-Pro-BNP, serum creatinine, weight, and NYHA Class were measured.
On day 1, KW-3902 (or placebo) was co-administered with intravenous furosemide (LASIX™). The specified dose of KW-3902 (or placebo) was infused over a four hour time period. Subjects received therapy for up to three days, as required. Serum creatinine, weight, dyspnea, and worsening heart failure were assessed daily by the investigator on days 1 through 14. Worsening renal function was defined as a ≧0.3 mg/dL increase in serum creatinine.
A subgroup of subjects received a single dose of KW-3902 and LASIX or a single dose of placebo and LASIX.

[6] = 1 mg, single intravenous dose 1 mg, Group 1, serum
[7] = 2.5 mg, single intravenous dose 2.5 mg, Group 1 (n = 4)
[8] = 2.5 mg, single intravenous dose 2.5 mg, Group 2 (n = 8)
[9] = 5 mg, single intravenous dose 5 mg, Group 2, serum
[10] = 10 mg, single intravenous dose 10 mg, Group 2, serum
[11] = 20 mg, single intravenous dose 20 mg, Group 3, serum
[12] = 30 mg, single intravenous dose 30 mg, Group 3, serum
[13] = 40 mg, single intravenous dose 40 mg, Group 4, serum
[14] = 50 mg, single intravenous dose 50 mg, Group 4, serum
[15] = 60 mg, single intravenous dose 60 mg, Group 4, serum
[16] = serum, individual subjects of subgroup, single dose of KW-3902 and LASIX

SMILES: CCCn1c(=O)c2[nH]c(C34CC5CC(CC3C5)C4)nc2n(CCC)c1=O [KW-3902, 8-(3-noradamantyl)-1,3-dipropylxanthine]
- Change in creatinine clearance from baseline (in words) [1]: improvement in renal function over time
- Sustained worsening renal function (≧0.3 mg/dL increase in serum creatinine), in words [2]: improves renal function
- GFR % Difference Between KW-3902 and Placebo ([3]; 0-2 hours): 27.3* %
- GFR Percent Change from Baseline ([3]; 0-2 hours): 22.1* Percent
- RPF % Difference Between KW-3902 and Placebo ([3]; 0-2 hours): 27.7* %
- RPF Percent Change from Baseline ([3]; 0-2 hours): 33.3* Percent
- GFR % Difference Between KW-3902 and Placebo ([3]; 0-8 hours): 23.4* %
- GFR Percent Change from Baseline ([3]; 0-8 hours): 32.1* Percent
- RPF % Difference Between KW-3902 and Placebo ([3]; 0-8 hours): 24.9* %
- RPF Percent Change from Baseline ([3]; 0-8 hours): 47.7** Percent
- GFR % Difference Between KW-3902 and Placebo ([3]; 2-4 hours): 7.6%
- GFR Percent Change from Baseline ([3]; 2-4 hours): 8.5%
- RPF % Difference Between KW-3902 and Placebo ([3]; 2-4 hours): 12.7%
- RPF Percent Change from Baseline ([3]; 2-4 hours): 41.7%
- GFR % Difference Between KW-3902 and Placebo ([3]; 4-8 hours): 30.1* %
- GFR Percent Change from Baseline ([3]; 4-8 hours): 41.3* Percent
- RPF % Difference Between KW-3902 and Placebo ([3]; 4-8 hours): 30.0* %
- RPF Percent Change from Baseline ([3]; 4-8 hours): 55.8* Percent
- Effect on GFR (in words) ([3]; FIG. 2): statistically significant increase
- Effect on renal plasma flow (in words) ([3]; FIG. 3): statistically significant increase
- Urine volume over 8 hours ([3]; KW-3902 plus furosemide): 2995.1 ± 1138.17 mL
- Persistence of the increase in GFR noted at 8 hours ([3]; subgroup that received KW-3902 on the first visit, follow-up baseline (median 6 days), FIG. 5): persisted at the time of follow-up baseline
- AUC(0-inf) [4, 6]: 31.5 ng·h/mL
- Cmax [4, 6]: 12.9 ng/mL
- MRT inf [4, 6]: 2.6 h
- clearance [4, 6]: 610 mL/min
- half-life [4, 6]: 2.8 h
- Tmax [4, 6]: 0.5 h
- Vd [4, 6]: 58.9 L
- AUC(0-inf) [4, 7]: 97.6 ng·h/mL
- Cmax [4, 7]: 35.6 ng/mL
- MRT inf [4, 7]: 8.1 h
- clearance [4, 7]: 443 mL/min
- half-life [4, 7]: 11.4 h
- Tmax [4, 7]: 1.2 h
- Vd [4, 7]: 185 L
- AUC(0-inf) [4, 8]: 84 ng·h/mL
- Cmax [4, 8]: 35.9 ng/mL
- MRT inf [4, 8]: 4.7 h
- clearance [4, 8]: 518 mL/min
- half-life [4, 8]: 7.3 h
- Tmax [4, 8]: 0.5 h
- Vd [4, 8]: 117 L
- AUC(0-inf) [4, 9]: 221 ng·h/mL
- Cmax [4, 9]: 90.9 ng/mL
- MRT inf [4, 9]: 5.8 h
- clearance [4, 9]: 435 mL/min
- half-life [4, 9]: 9.6 h
- Tmax [4, 9]: 0.5 h
- Vd [4, 9]: 106 L
- AUC(0-inf) [4, 10]: 496 ng·h/mL
- Cmax [4, 10]: 186 ng/mL
- MRT inf [4, 10]: 8.7 h
- clearance [4, 10]: 350 mL/min
- half-life [4, 10]: 14.4 h
- Tmax [4, 10]: 0.5 h
- Vd [4, 10]: 161 L
- AUC(0-inf) [4, 11]: 898 ng·h/mL
- Cmax [4, 11]: 294 ng/mL
- MRT inf [4, 11]: 11.5 h
- clearance [4, 11]: 390 mL/min
- half-life [4, 11]: 18 h
- Tmax [4, 11]: 1.2 h
- Vd [4, 11]: 244 L
- AUC(0-inf) [4, 12]: 1190 ng·h/mL
- Cmax [4, 12]: 457 ng/mL
- MRT inf [4, 12]: 7.7 h
- clearance [4, 12]: 455 mL/min
- half-life [4, 12]: 14.7 h
- Tmax [4, 12]: 0.6 h
- Vd [4, 12]: 189 L
- AUC(0-inf) [4, 13]: 1870 ng·h/mL
- Cmax [4, 13]: 452 ng/mL
- MRT inf [4, 13]: 9.4 h
- clearance [4, 13]: 372 mL/min
- half-life [4, 13]: 16.1 h
- Tmax [4, 13]: 2.2 h
- Vd [4, 13]: 178 L
- AUC(0-inf) [4, 14]: 2120 ng·h/mL
- Cmax [4, 14]: 579 ng/mL
- MRT inf [4, 14]: 7.9 h
- clearance [4, 14]: 427 mL/min
- half-life [4, 14]: 15.5 h
- Tmax [4, 14]: 1.6 h
- Vd [4, 14]: 166 L
- AUC(0-inf) [4, 15]: 2720 ng·h/mL
- Cmax [4, 15]: 682 ng/mL
- MRT inf [4, 15]: 9.2 h
- clearance [4, 15]: 378 mL/min
- half-life [4, 15]: 16.4 h
- Tmax [4, 15]: 2.2 h
- Vd [4, 15]: 176 L
- Change in mean serum creatinine levels (in words) ([5]; 30 mg per day IV up to three days, Day 14, FIG. 8): overall decrease in serum creatinine levels
- Increase in the percentage of individuals with worsening renal failure, compared to placebo ([5]; days 2, 3, 4, 5, 6, and 7, FIG. 7): lower
- Δ Creatinine ([5]; serum, Day 14 vs Day 1, individual subjects of subgroup, single dose of KW-3902 and LASIX): −0.5 mg/dL and 0 mg/dL (2×) and 0.2 mg/dL and −0.2 mg/dL and −0.1 mg/dL
- Day 1 Creatinine [5, 16]: 1.7 mg/dL and 1.4 mg/dL and 1.15 mg/dL and 2.9 mg/dL and 1.6 mg/dL and 3.2 mg/dL and 1.0 mg/dL
- Day 14 Creatinine [5, 16]: 1.2 mg/dL and 1.4 mg/dL and 1.3 mg/dL and 2.7 mg/dL (2×) and 1.0 mg/dL
- Mean change in serum creatinine levels (in words) ([5]; single dose subgroup (30 mg KW-3902), Day 14): mean decrease in serum creatinine levels
